Experimental data reported in US8471005B2 (Cephalon, Inc., priority 2008, dated 2013).
pIC50: −log10 of the molar value. Read-outs that look alike come from different tables or passages of the source.

Assays:
ALK = molecular target: T1, ALK (Homo sapiens, UniProt Q9UM73); test: ALK Kinase Assay (ELISA/TRF, PLC-γ substrate); assay type: biochemical; details: read-out: ALK Potency
T1 construct: host or cells: baculovirus expression system
Outline: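 PLC-γ substrate coated at 10 μg/mL in TBS; reaction started with 30 ng/ml ALK, run 15 min at 37° C. Phosphoproduct detected by TRF with Eu-N1-labeled PT66 anti-phosphotyrosine antibody. IC50 from sigmoidal variable-slope fit of percent inhibition versus log concentration.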

JAK2 = molecular target: T2, JAK2 (Homo sapiens, UniProt O60674); test: Recombinant Human JAK2 Kinase Assay (TRF); assay type: biochemical; details: read-out: JAK2 Potency
T2 construct: host or cells: baculovirus expression system
Outline: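 TRF read-out: Eu-N1 PY100 anti-phosphotyrosine antibody detects product. Enzyme is baculovirus-expressed JAK2 at 15 ng/ml; substrate is a biotinyl 15-mer peptide bound to Neutravidin-coated wells. Buffer 20 mM HEPES pH 7.2, 0.2 μM ATP, 1 mM MnCl2, 0.1% BSA, 2.5% DMSO final; 20 min, RT.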

[1] = ALK kinase inhibition, 1 μM ATP
[2] = JAK2 kinase inhibition, 0.2 μM ATP

T1 sequence (Q9UM73 19-1620): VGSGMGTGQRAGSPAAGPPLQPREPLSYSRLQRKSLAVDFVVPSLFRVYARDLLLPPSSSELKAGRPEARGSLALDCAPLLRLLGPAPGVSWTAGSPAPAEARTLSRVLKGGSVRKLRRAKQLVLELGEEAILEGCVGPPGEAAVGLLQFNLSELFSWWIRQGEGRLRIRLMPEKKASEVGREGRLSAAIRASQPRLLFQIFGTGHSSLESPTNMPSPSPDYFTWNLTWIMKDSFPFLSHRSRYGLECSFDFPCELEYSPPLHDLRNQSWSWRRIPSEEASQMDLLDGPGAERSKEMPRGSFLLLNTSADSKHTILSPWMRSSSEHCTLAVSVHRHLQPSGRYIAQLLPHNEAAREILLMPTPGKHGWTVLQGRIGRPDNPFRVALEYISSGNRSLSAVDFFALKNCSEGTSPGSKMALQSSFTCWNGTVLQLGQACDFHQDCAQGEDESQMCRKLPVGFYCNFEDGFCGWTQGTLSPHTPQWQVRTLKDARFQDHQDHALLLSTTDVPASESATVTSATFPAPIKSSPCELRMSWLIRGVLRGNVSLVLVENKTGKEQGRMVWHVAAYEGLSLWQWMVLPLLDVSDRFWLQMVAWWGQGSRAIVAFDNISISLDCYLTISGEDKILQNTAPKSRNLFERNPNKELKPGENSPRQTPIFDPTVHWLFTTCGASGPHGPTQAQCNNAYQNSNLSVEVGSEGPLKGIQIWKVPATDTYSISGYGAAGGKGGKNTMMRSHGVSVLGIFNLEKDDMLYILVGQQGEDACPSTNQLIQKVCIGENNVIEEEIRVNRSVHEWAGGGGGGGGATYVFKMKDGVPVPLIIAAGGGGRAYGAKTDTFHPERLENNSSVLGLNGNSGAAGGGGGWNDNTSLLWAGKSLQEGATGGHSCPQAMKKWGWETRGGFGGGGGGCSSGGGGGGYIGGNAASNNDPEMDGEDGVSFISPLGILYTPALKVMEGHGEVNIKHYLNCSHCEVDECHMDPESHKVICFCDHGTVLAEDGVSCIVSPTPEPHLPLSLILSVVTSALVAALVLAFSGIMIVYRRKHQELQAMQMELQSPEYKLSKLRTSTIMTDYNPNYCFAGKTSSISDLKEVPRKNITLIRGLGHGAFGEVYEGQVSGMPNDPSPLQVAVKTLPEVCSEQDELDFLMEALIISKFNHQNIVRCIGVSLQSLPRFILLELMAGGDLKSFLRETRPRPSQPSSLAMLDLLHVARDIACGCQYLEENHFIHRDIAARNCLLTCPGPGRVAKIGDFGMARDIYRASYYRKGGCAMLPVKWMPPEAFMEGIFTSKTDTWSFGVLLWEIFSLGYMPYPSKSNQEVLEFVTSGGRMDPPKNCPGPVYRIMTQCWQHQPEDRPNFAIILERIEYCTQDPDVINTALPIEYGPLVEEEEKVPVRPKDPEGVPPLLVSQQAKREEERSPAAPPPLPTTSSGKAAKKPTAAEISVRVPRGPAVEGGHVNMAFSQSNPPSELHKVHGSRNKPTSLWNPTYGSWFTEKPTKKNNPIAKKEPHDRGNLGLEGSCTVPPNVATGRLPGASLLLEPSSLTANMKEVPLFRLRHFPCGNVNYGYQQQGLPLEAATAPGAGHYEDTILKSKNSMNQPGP
T2 sequence (O60674 whole entry): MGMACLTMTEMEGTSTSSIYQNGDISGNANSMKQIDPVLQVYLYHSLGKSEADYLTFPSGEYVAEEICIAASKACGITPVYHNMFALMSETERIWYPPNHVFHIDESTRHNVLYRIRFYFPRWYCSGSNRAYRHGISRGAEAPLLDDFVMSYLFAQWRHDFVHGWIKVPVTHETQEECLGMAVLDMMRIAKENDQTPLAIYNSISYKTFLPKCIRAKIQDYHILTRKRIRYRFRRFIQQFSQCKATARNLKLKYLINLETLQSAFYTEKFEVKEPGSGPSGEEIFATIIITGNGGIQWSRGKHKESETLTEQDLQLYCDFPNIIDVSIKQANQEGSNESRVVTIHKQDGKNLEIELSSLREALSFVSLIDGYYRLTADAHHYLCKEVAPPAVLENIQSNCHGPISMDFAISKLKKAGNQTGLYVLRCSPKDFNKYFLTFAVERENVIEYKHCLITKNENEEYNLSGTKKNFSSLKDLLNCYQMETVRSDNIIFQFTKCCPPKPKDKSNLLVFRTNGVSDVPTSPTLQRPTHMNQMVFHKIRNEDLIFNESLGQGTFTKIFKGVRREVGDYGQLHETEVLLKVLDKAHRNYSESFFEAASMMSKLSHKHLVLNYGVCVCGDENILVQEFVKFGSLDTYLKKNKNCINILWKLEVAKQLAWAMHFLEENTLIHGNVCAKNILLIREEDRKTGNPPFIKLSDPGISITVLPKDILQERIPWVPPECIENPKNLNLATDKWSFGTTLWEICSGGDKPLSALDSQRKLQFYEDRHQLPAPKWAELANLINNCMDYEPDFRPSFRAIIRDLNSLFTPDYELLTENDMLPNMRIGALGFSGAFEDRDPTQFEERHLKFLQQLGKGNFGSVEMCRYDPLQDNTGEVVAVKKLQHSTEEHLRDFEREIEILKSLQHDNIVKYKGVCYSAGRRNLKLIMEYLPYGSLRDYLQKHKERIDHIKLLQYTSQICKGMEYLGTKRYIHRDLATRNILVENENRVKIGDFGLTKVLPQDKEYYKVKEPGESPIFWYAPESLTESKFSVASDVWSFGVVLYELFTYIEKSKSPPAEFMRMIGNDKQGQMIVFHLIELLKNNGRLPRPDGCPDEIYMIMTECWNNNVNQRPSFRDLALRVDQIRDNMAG

| Compound | pIC50 (ALK; [1]) | pIC50 (JAK2; [2]) | pIC50 (ALK; ALK Kinase Inhibition) | pIC50 (JAK2; JAK2 Kinase Inhibition) |
| --- | --- | --- | --- | --- |
| COc1cc(C2CCN(CC(N)=O)CC2)ccc1Nc1ncc2ccc(-c3cccc4c3OCC4)n2n1 [Example 703, 2-(4-{4-[7-(2,3-Dihydro-benzofuran-7-yl)-pyrrolo[2,1-f][1,2,4]triazin-2-ylamino]-3-methoxy-phenyl}-piperidin-1-yl)-acetamide] | > 7.00 | 6.00 to 7.00 | – | – |
| CN1CCOc2ccc(Nc3ncc4ccc(-c5cccnc5)n4n3)cc21 [Example 642, (4-Methyl-3,4-dihydro-2H-benzo[1,4]oxazin-6-yl)-(7-pyridin-3-yl-pyrrolo[2,1-f][1,2,4]triazin-2-yl)-amine] | 5.00 to 6.00 | > 7.00 | – | – |
| CN1CCC(C(=O)N2CCC(c3ccc(Nc4ncc5ccc(-c6ccccc6N(C)S(C)(=O)=O)n5n4)cc3)CC2)CC1 [Example 502, N-Methyl-N-[2-(2-{4-[1-(1-methyl-piperidine-4-carbonyl)-piperidin-4-yl]-phenylamino}-pyrrolo[2,1-f][1,2,4]triazin-7-yl)-phenyl]-methanesulfonamide] | > 7.00 | > 7.00 | – | – |
| 1-[7-(2-Methoxy-phenyl)-pyrrolo[2,1-f][1,2,4]triazin-2-yl]-1H-imidazo[4,5-c]pyridine [Example 322] | – | – | 5.00 to 6.00 | 6.00 to 7.00 |
| CCN1CCCC(CC)(c2ccc(Nc3ncc4ccc(-c5ccccc5N(C)S(C)(=O)=O)n4n3)cc2)C1 (racemic) [Example 778, (±)-N-(2-{2-[4-(1,3-Diethyl-piperidin-3-yl)-phenylamino]-pyrrolo[2,1-f][1,2,4]triazin-7-yl}-phenyl)-N-methyl-methanesulfonamide] | > 7.00 | > 7.00 | – | – |
| COCCN1CCc2ccc(Nc3ncc4ccc(-c5ccccc5OC)n4n3)cc2CC1 [Example 30, [3-(2-Methoxy-ethyl)-2,3,4,5-tetrahydro-1H-benzo[d]azepin-7-yl]-[7-(2-methoxy-phenyl)-pyrrolo[2,1-f][1,2,4]triazin-2-yl]-amine] | – | – | > 7.00 | > 7.00 |
| COc1cc(N2CCN(C[C@H](C)O)CC2)ccc1Nc1ncc2ccc(-c3cccc4c3OCCO4)n2n1 [Example 547, (S)-1-(4-{4-[7-(2,3-Dihydro-1,4-benzodioxin-5-yl)-pyrrolo[2,1-f][1,2,4]triazin-2-ylamino]-3-methoxy-phenyl}-piperazin-1-yl)-propan-2-ol] | > 7.00 | > 7.00 | – | – |
| COc1cc(N2CCCN(C)CC2)ccc1Nc1ncc2ccc(-c3ccccc3N(C)S(C)(=O)=O)n2n1 [Example 771, N-(2-{2-[2-Methoxy-4-(4-methyl-[1,4]diazepan-1-yl)-phenylamino]-pyrrolo[2,1-f][1,2,4]triazin-7-yl}-phenyl)-N-methyl-methanesulfonamide] | > 7.00 | 6.00 to 7.00 | – | – |
| COc1cc(N2CCC(N3CCN(C)CC3)CC2)ccc1Nc1ncc2ccc(-c3cccnc3)n2n1 [Example 241] | – | – | > 7.00 | 6.00 to 7.00 |
| COc1ccccc1-c1ccc2cnc(Nc3ccc4[nH]ccc4c3)nn12 [Example 170, (1H-Indol-5-yl)-[7-(2-methoxy-phenyl)-pyrrolo[2,1-f][1,2,4]triazin-2-yl]-amine] | – | – | 5.00 to 6.00 | > 7.00 |
| CN(c1ccccc1-c1ccc2cnc(Nc3ccc(F)c(N4CCOCC4)c3)nn12)S(C)(=O)=O [Example 388, N-{2-[2-(4-Fluoro-3-morpholin-4-yl-phenylamino)-pyrrolo[2,1-f][1,2,4]triazin-7-yl]-phenyl}-N-methyl-methanesulfonamide] | – | – | 6.00 to 7.00 | > 7.00 |
| c1ccc(-c2ccc3cnc(NCc4cccnc4)nn23)cc1 [Example 12, (7-Phenyl-pyrrolo[2,1-f][1,2,4]triazin-2-yl)-pyridin-3-ylmethyl-amine] | – | – | 5.00 to 6.00 | 5.00 to 6.00 |

Results, then the compound that gave them:

| pIC50 (ALK; [1]) | pIC50 (JAK2; [2]) | pIC50 (ALK; ALK Kinase Inhibition) | pIC50 (JAK2; JAK2 Kinase Inhibition) | Compound |
| --- | --- | --- | --- | --- |
| – | – | 6.00 to 7.00 | > 7.00 | CCN1C(=O)CCC(C)(C)c2ccc(Nc3ncc4ccc(-c5cnn(C)c5)n4n3)cc21 [Example 1379, 1-Ethyl-5,5-dimethyl-8-[7-(1-methyl-1H-pyrazol-4-yl)-pyrrolo[2,1-f][1,2,4]triazin-2-ylamino]-1,3,4,5-tetrahydro-benzo[b]azepin-2-one] |
| > 7.00 | > 7.00 | – | – | COc1cc2c(cc1Nc1ncc3ccc(-c4ccccc4OC)n3n1)CN(C1CCN(C)CC1)C2 [Example 852, [6-Methoxy-2-(1-methyl-piperidin-4-yl)-2,3-dihydro-1H-isoindol-5-yl]-[7-(2-methoxy-phenyl)-pyrrolo[2,1-f][1,2,4]triazin-2-yl]-amine] |
| 6.00 to 7.00 | < 5.00 | – | – | COc1cc(C2CCN(C(=O)OC(C)(C)C)CC2)ccc1Nc1ncc2ccc(-c3ccccc3N(C)S(C)(=O)=O)n2n1 [Example 818, 4-(4-{7-[2-(Methanesulfonyl-methyl-amino)-phenyl]-pyrrolo[2,1-f][1,2,4]triazin-2-ylamino}-3-methoxy-phenyl)-piperidine-1-carboxylic acid tert-butyl ester] |
| 5.00 to 6.00 | > 7.00 | – | – | CN1CCN(c2cccc(Nc3ncc4ccc(NCc5cccnc5)n4n3)c2)CC1 [Example 1168, N-(2)-[3-(4-Methyl-piperazin-1-yl)-phenyl]-N(7)-pyridin-3-ylmethyl-pyrrolo[2,1-f][1,2,4]triazine-2,7-diamine] |
| > 7.00 | > 7.00 | – | – | COc1cc(Nc2ncc3ccc(-c4ccccc4N(C)S(C)(=O)=O)n3n2)ccc1C1CCN(CC(N)=O)CC1 [Example 914, 2-[4-(4-{7-[2-(Methanesulfonyl-methyl-amino)-phenyl]-pyrrolo[2,1-f][1,2,4]triazin-2-ylamino}-2-methoxy-phenyl)-piperidin-1-yl]-acetamide] |
| 5.00 to 6.00 | > 7.00 | – | – | COc1ccccc1-c1ccc2cnc(Nc3ccc4cn(CCN5CCOCC5)nc4c3)nn12 [Example 1350, [7-(2-Methoxy-phenyl)-pyrrolo[2,1-f][1,2,4]triazin-2-yl]-[2-(2-morpholin-4-yl-ethyl)-2H-indazol-6-yl]-amine] |
| > 7.00 | 6.00 to 7.00 | – | – | COc1cc(CN2CCN(C(C)=O)CC2)ccc1Nc1ncc2ccc(-c3ccccc3N(C)S(C)(=O)=O)n2n1 [Example 1240, N-(2-{2-[4-(4-Acetyl-piperazin-1-ylmethyl)-2-methoxy-phenylamino]-pyrrolo[2,1-f][1,2,4]triazin-7-yl}-phenyl)-N-methyl-methanesulfonamide] |
| > 7.00 | 6.00 to 7.00 | – | – | COc1cc(C2CCCN(CC(N)=O)C2)ccc1Nc1ncc2ccc(-c3ccccc3N(C)S(C)(=O)=O)n2n1 (racemic) [Example 861, (±)-2-[3-(4-{7-[2-(Methanesulfonyl-methyl-amino)-phenyl]-pyrrolo[2,1-f][1,2,4]triazin-2-ylamino}-3-methoxy-phenyl)-piperidin-1-yl]-acetamide] |
| > 7.00 | > 7.00 | – | – | N#CCCc1cccc(-c2ccc3cnc(Nc4ccc(N5CCC(N6CCOCC6)CC5)cc4)nn23)c1 [Example 1150, 3-(3-{2-[4-(4-Morpholin-4-yl-piperidin-1-yl)-phenylamino]-pyrrolo[2,1-f][1,2,4]triazin-7-yl}-phenyl)-propionitrile] |
| 6.00 to 7.00 | > 7.00 | – | – | CN1CCN(c2ccc(Nc3ncc4ccc(-c5cccc(CN(C)S(C)(=O)=O)c5)n4n3)cc2)CC1 [Example 1048, N-Methyl-N-(3-{2-[4-(4-methyl-piperazin-1-yl)-phenylamino]-pyrrolo[2,1-f][1,2,4]triazin-7-yl}-benzyl)-methanesulfonamide] |
| > 7.00 | > 7.00 | – | – | COc1ccccc1-c1ccc2cnc(Nc3ccc(C4CCN(C[C@H](O)CO)CC4)cc3)nn12 [Example 1125, (S)-3-(4-{4-[7-(2-Methoxy-phenyl)-pyrrolo[2,1-f][1,2,4]triazin-2-ylamino]-phenyl}-piperidin-1-yl)-propane-1,2-diol] |
| > 7.00 | 5.00 to 6.00 | – | – | COc1ccc(-c2ccc3cnc(Nc4ccc(C5CCN(CC(N)=O)CC5)cc4OC)nn23)c(N(C)S(C)(=O)=O)c1 [Example 1273, 2-[4-(4-{7-[2-(Methanesulfonyl-methyl-amino)-4-methoxy-phenyl]-pyrrolo[2,1-f][1,2,4]triazin-2-ylamino}-3-methoxy-phenyl)-piperidin-1-yl]-acetamide] |
| 5.00 to 6.00 | > 7.00 | – | – | CC(=O)Nc1cccc(Nc2ncc3ccc(-c4cccc(CN(C)S(C)(=O)=O)c4)n3n2)c1 [Example 1053, N-[3-(7-{3-[(Methanesulfonyl-methyl-amino)-methyl]-phenyl}-pyrrolo[2,1-f][1,2,4]triazin-2-ylamino)-phenyl]-acetamide] |
| 5.00 to 6.00 | 6.00 to 7.00 | – | – | CN1CCN(c2ncc3ccc(-c4ccccc4N(C)S(C)(=O)=O)n3n2)CC1 [Example 1250, N-Methyl-N-{2-[2-(4-methyl-piperazin-1-yl)-pyrrolo[2,1-f][1,2,4]triazin-7-yl]-phenyl}-methanesulfonamide] |
| < 5.00 | < 5.00 | – | – | COc1cc(C2CCN(C(=O)OC(C)(C)C)CC2)ccc1Nc1ncc2ccc(-c3ccccc3OC)n2n1 [Example 817, 4-{3-Methoxy-4-[7-(2-methoxy-phenyl)-pyrrolo[2,1-f][1,2,4]triazin-2-ylamino]-phenyl}-piperidine-1-carboxylic acid tert-butyl ester] |
| – | – | > 7.00 | 6.00 to 7.00 | COc1cc(N2CCCC(N3CC(C)OC(C)C3)C2)ccc1Nc1ncc2ccc(-c3ccccc3OC)n2n1 (centres unmarked) [Example 1445, {4-[3-(2,6-Dimethyl-morpholin-4-yl)-piperidin-1-yl]-2-methoxy-phenyl}-[7-(2-methoxy-phenyl)-pyrrolo[2,1-f][1,2,4]triazin-2-yl]-amine] |
